{"source": "patent US8796203B2", "about": "“Use of tight junction antagonists to treat inflammatory bowel disease” (Alba Therapeutics Corporation, priority 2006, dated 2014)", "assay_type_in_all_cases": "in vivo", "key": {"129/Svev/IL-10KO mouse": {"test_system": "129/Svev/IL-10KO mouse", "assay": "Small intestinal permeability by lactulose mannitol test in IL-10 KO mouse", "conditions": "high dose AT-1001 (1 mg/ml in drinking water, ad libidum), FIGS. 1-4", "experimental": "(§1) The purpose of this study is to determine the ability of AT-1001, administered daily in drinking water to alter intestinal permeability (measured by absorption/excretion of lactulose and mannitol) and to inhibit the development of colitis in the 129/Svev/IL-10KO mouse.\nAT-1001 neat chemical will be administered ad libidum every day starting at day 1 to Group 3 at 0.1 mg/ml and Group 4 at 1 mg/ml in sterile water via the drinking water supply. Dosing of AT-1001 will be continued when the animals are in the metabolic cages for 22 hours. Probiotic conditioned medium will be given every morning to Group 2. The solution is prepared by dissolving 0.01 g in 10 ml of MRS medium and incubating it at 37° C. for 24 h. After incubation, the tube will be centrifuged 10 minutes at 10,000 rpm. The supernatant will be filtered through a 0.22 micron filter and diluted 1:10 with MRS medium. Animals will receive 30 μl of this dilution every morning. The conditioned media must be prepared fresh every morning.\nEach week, food and water will be removed 4 hours prior to gavage. […]\nDuring each intestinal permeability trial, all subjects will be gavaged with suc/lac/man/sucralose solution and placed in metabolic cages immediately after to enable urine collection. […] All sugars will be quantified by ion exchange HPLC. […]"}, "[1]": {"test_system": "129/Svev/IL-10KO mouse colon", "assay": "Colonic permeability and electrical resistance, Ussing chamber measurements, IL-10 KO mouse", "conditions": "at 8 weeks of age, AT-1001 in drinking water, versus untreated animals", "experimental": "as §1\n(§2) FIG. 5-10 show the results of analysis of disease in the colon. Disease in the colon was evaluated at both 8 and 17 week time points. The former with Ussing chamber measurements and the latter with histology, mucosal cytokine secretion, MPO and sucralose permeability."}, "[2]": {"test_system": "129/Svev/IL-10KO mouse colon", "assay": "Colonic inflammation (histology, mucosal cytokine secretion, MPO) in IL-10 KO mouse", "conditions": "at 17 weeks; AT-1001 in drinking water", "excerpt": "as §1\nImmediately upon expiration, stomachs, small intestines, and colons will be collected and weighed. Each tissue will be scored for macroscopic lesions to assess intestinal damage by the Study Pathologist. ELISAs will be performed on each tissue to measure the levels of MPO, IL-8, TNFα, and IFNγ. A section of the tissues will be fixed in formalin for HE histology. The day after the final intestinal permeability measures on day 77, all surviving animals will be euthanized and intestinal tissues collected and processed.\nas §2"}}}
{"substance": "AT-1001", "values": [{"measurement": "increase in small intestinal permeability associated with development of disease", "setting": "129/Svev/IL-10KO mouse", "result": "abrogated"}, {"measurement": "colonic electrical resistance", "setting": "[1]", "result": "prevented the reduction in electrical resistance"}, {"measurement": "colonic permeability to mannitol", "setting": "[1]", "result": "reduced colonic permeability to mannitol"}, {"measurement": "tissue markers of colonic inflammation (neutrophil infiltration/MPO, TNF and IFN secretion over 24 hours)", "setting": "[2]", "result": "reduced all tissue markers of colonic inflammation that were measured"}]}
